The text below walks through data of paper PMC3598812, “Evaluation of Anti-Hyperalgesic and Analgesic Effects of Two Benzodiazepines in Human Experimental Pain: A Randomized Placebo-Controlled Study” (PLoS ONE, 2013).

A short description of this series: Pharmacokinetics of clobazam in plasma (LC-MS/MS). The note with it: human, po, 20 mg, clobazam 20 mg oral, mean (SD). Format: in vivo.
Setting [1] is: subgroup (n = 8) with peak plasma level below 180 minutes and at least 200 µg/ml.

As a reminder, the AUC is the area under the concentration-time curve, a measure of exposure. The low end stands for low exposure, the high end for high exposure. For orientation: Cmax means the highest concentration seen after dosing. Usually Tmax stands for the time from dosing to the highest level. Broadly, the half-life is the time in which the quantity being followed falls by half. A higher half-life goes with slow decline. For `CN1C(=O)CC(=O)N(c2ccccc2)c2cc(Cl)ccc21` [Clobazam], under “all volunteers (n = 16)”, the AUC is 5460 ng·h/mL, the highest level (Cmax) was 370 ng/mL, the time of peak concentration (Tmax) is 2.28 h and the half-life is 19 h. Moreover, under setting [1], the AUC came out at 6160 ng·h/mL, the peak level (Cmax) was 470 ng/mL, the Tmax worked out at 1.64 h and the half-life is 17.5 h.
